{"source": "paper PMC2917589", "about": "(Nature chemical biology, 2010)", "key": {"[1]": {"biological_target": "myosin V (S1) 6IQ construct (Gallus gallus, UniProt Q02440)", "sequence (Q02440 whole entry, looked up)": "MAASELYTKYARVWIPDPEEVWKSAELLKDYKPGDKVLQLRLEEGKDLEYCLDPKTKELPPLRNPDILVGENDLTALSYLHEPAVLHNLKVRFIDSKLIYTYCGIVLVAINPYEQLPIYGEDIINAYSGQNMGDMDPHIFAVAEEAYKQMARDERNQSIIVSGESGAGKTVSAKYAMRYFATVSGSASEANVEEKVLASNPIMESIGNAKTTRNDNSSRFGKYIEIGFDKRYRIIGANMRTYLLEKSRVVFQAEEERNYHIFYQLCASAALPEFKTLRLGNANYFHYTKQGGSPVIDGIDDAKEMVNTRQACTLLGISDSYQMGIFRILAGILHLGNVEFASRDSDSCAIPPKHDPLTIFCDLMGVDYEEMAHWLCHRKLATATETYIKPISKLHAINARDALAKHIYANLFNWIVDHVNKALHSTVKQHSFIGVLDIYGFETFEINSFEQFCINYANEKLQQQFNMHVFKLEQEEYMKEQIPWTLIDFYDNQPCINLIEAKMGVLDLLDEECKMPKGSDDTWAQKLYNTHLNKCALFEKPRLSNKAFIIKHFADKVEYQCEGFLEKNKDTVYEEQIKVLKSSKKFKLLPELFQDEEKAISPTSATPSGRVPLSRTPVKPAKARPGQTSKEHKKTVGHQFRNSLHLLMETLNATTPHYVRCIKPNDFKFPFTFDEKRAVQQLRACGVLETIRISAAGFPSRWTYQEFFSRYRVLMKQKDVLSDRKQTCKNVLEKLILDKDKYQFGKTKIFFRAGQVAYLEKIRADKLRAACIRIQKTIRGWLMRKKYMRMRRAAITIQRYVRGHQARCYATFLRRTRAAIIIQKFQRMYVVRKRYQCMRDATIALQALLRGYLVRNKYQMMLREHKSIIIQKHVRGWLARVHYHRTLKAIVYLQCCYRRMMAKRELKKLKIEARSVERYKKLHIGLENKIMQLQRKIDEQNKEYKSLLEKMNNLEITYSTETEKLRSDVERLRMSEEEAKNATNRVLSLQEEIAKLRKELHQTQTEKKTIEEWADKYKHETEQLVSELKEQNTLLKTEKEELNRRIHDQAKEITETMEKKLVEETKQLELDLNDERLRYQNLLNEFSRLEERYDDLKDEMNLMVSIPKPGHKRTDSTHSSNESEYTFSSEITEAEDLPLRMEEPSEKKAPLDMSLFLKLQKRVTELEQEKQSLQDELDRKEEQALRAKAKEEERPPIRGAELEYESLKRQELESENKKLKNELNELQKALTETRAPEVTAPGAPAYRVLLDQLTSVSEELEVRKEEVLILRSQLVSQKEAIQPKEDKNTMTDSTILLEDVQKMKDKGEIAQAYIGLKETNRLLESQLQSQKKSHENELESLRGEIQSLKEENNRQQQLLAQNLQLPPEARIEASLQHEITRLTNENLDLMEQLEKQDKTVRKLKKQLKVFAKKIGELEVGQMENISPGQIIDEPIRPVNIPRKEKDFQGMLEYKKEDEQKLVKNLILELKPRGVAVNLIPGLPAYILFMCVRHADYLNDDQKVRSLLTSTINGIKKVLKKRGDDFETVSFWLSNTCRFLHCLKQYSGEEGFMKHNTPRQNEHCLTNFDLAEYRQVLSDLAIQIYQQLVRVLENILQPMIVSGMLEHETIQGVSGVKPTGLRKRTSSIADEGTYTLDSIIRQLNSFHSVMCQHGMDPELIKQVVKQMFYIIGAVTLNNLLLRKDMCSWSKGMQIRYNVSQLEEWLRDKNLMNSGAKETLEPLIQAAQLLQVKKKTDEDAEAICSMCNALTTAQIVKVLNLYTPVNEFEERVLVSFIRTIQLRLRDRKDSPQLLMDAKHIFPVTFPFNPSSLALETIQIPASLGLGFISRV", "type": "binding"}, "[2]": {"biological_target": "myosin V (S1) 1IQ construct (Gallus gallus, UniProt Q02440)", "sequence (Q02440 whole entry, looked up)": "as above", "type": "binding"}}}
{"smiles": "Nc1ncnc2c1ncn2[C@@H]1O[C@H](COP(=O)(O)OP(=O)(O)O)[C@@H](O)[C@H]1O", "note": "[ADP]", "values": [{"measurement": "Kd", "setting": "[1]", "value": "~1", "unit": "µM"}, {"measurement": "Kd", "setting": "[2]", "value": "2.4 ± 1.7", "unit": "µM"}]}
